In patent publication US11891464B2, “Alkane-soluble non-metallocene precatalysts” (Dow Global Technologies LLC, priority 2018, dated 2024):

What was measured:
[1] = Light-off Test Method (time to maximum temperature in polymerization of 1-octene); details: for Light-off Performance (Time to Maximum (minutes)): 8 micromoles precatalyst, 0.16 g spray dried methylaluminoxane, 11 mL 1-octene
Procedure: Light-off Test Method: Under an atmosphere of nitrogen in a glovebox, charge a 40 mL glass vial with a PTFE-coated, magnetic stir bar and 0.16 g of spray dried methylaluminoxane powder of Preparation 1A. To the charged vial add 11 mL of 1-octene, and then insert the vial into an insulated sleeve mounted on a magnetic stir plate turning at approximately 300 rotations per minute (rpm). To the insulated vial add 8 micromoles (μmol) of precatalyst (e.g., compound (1) or HN5Zr dibenzyl). Cap the vial with a rubber septum. Insert a thermocouple probe through the rubber septum into the vial such that the tip of the thermocouple probe is below the liquid level. Record the temperature of the contents of the vial at 5 second intervals, continuing until after the maximum temperature is reached. Download the temperature and time data to a spreadsheet, and plot thermo-kinetic profiles for analysis.

[2] = Solubility Test Method (solubility in hexanes); type: physicochemical; details: hexanes containing at least 60 wt % n-hexane; room temperature and ambient pressure
Procedure: Solubility Test Method: to a 20-mL vial is added, at room temperature and ambient pressure, a known mass of test precatalyst (e.g., compound (1)) and a known volume of hexanes containing at least 60 weight percent n-hexane. A PTFE-coated magnetic stir bar is added and the mixture is allowed to stir for 1 hour before the vial is removed from the stir plate, and the mixture is allowed to sit overnight. The next day the suspension is filtered through a 0.4 μm PTFE syringe filter into a tared vial, giving a known mass of supernatant, and the hexanes are removed under reduced pressure, leaving a measurable mass of the compound of formula (1) from which wt. % solubility is calculated.

## Cc1c(C)c(C)c([N-]CCNCC[N-]c2c(C)c(C)c(C)c(C)c2C)c(C)c1C.[CH2-]c1ccccc1.[CH2-]c1ccccc1.[Zr+4] [HN5Zr dibenzyl (CE2)]
[1]
  Light-off Performance (Time to Maximum (minutes)): 78.6 min
[2]
  Solubility in Hexanes (wt %): 0.03 wt %

## bis(2-(pentamethylphenylamido)ethyl)-amine zirconium(IV) bis-trimethylsilylmethyl [Compound (1A)]
[1]
  Light-off Performance (Time to Maximum (minutes)): 1.3 min
[1]; relative to HN5Zr dichloride (CE1)
  time to maximum temperature, times better than HN5Zr dichloride (CE1): 4 times

## Cc1c(C)c(C)c([N-]CCNCC[N-]c2c(C)c(C)c(C)c(C)c2C)c(C)c1C.[Cl-].[Cl-].[Zr+4] [HN5Zr dichloride (CE1)]
[1]
  Light-off Performance (Time to Maximum (minutes)): 5.2 min
